This is an account of results in patent US6699846B2, “Mono- and disaccharides for the treatment of nitric oxide related disorders” (Corixa Corporation, priority 2000, dated 2004).

One series can be described thus: USP rabbit pyrogen test. It counts as in vivo. The note with it: for pyrogenicity: 2.5 μg dose, class symbols. The text has this:
(§1) In clinical trials with monophosphoryl lipid A, fever was generally the first observed side effect. In clinical studies of various formulations of monophosphoryl lipid A administered intravenously, moderate fever, flu-like symptoms and alterations in blood pressure seem to be side effects that establish maximally tolerated doses. Minimum pyrogenic monophosphoryl lipid A doses, adjusted for body weight, as determined in the USP rabbit pyrogen test agree well with results observed in humans. […] In contrast, monophosphoryl lipid A becomes pyrogenic at intravenous doses of approximately 15 μg/kg (temperature increase of about 0.5° C.).

Series [1] concerns human myelomonocytic cell line THP-1. Briefly: proinflammatory cytokine elaboration from THP-1 cells. The note with it: for cytokine induction / cytokine stimulation: TNF-α, IL-1β, class symbols; for cytokine stimulation: second table. Format: cell-based. On the procedure: The human myelomonocytic cell line THP-1 (ATCC) was used to evaluate the ability of glycolipids to induce proinflammatory cytokines. Glycolipids were added to cell suspensions of THP-1 as aqueous solutions containing 10% ethanol in water for injection. Prior to the 4 hr inductions, THP-1 cells are pre-incubated overnight with 10^−7 M vitamin D3, washed three times and replated in the presence of MPL®, LPS or the synthetic compounds. After 4 hr coincubating of cells with glycolipids, media containing drug is removed, cells resuspended in fresh media and allowed to rest for 20 hr.

The subject of series [2] is cardiac ischemia. The note with it: dogs. The text has this:
Free-radicals produced during reperfusion promote cell death. Free-radical damage to cells results in calcium overload and a decrease in activity of a variety of enzyme systems including, presumably, nitric oxide synthase causing a decrease in nitric oxide production leading to increases in neutrophil adhesion.

The next series relates to ischemic tissues. The note with it: infusion immediately following bolus dosing.
A further series in a line: body temperature in dogs. Format: in vivo, dog.
Source text: as §1

The test system of series [3] is cardiac ischemia. The note with it: rabbits, treated about 24 h before cardiac ischemia.
The test system of series [4] is pig infarct (LAD occlusion). Briefly: pig infarct study (LAD occlusion), acute cardioprotection. It counts as in vivo. On the procedure:
A total of 35 pigs were enrolled in the study: 8 in group 1; 10 in group 2; 7 in group 3, 7 in group 4; and 3 in group 5. When the data were analyzed, infarct size results from the two L-NAME control groups (1 and 3) were combined.

The nature of a further series: body temperature in rats. Format: in vivo, rat.
Series [5] concerns iNOS induction in J774 murine macrophages. Description: iNOS induction (nitrite release, Greiss reagent) in IFN-γ primed J774 cells. Format: cell-based. The note with it: for iNOS: second table, class symbols. On the procedure:
The murine macrophage cell line J774 can be primed by IFN-γ in vitro and is very responsive to subsequent LPS stimulation of iNOS upregulation as measured by a standard Greiss reagent ELISA assay procedure. The assay utilizes J774 cells seeded at 1×10^6/mL with 30 mL/flask and with IFN-γ added at 100 units/mL for 16-24 hrs. Cells are then harvested and washed and resuspended at 2×10^5/well in a 96-well plate and allowed to adhere. Glycolipid compounds are serially diluted into the wells for a test group and the resulting cultures are incubated for another 36-40 hrs before culture supernatants are collected from Greiss reagent analysis of nitrite release. Nitrite content closely parallels iNOS function.
Potency was determined as the concentration (ng/mL) of glycolipid in culture capable of inducing one-half maximal induction of nitrite (ED50). The lower the ED50 number, the greater the potency for iNOS induction.

Setting [6] is: THP-1 cells, not elicited up to this concentration.

Like-named read-outs stand apart in the source and are kept apart here.

Consider `CCCCCCCCCCC[C@H](CC(=O)NCCO[C@@H]1O[C@H](CO)[C@@H](OP(=O)(O)O)[C@H](OC(=O)C[C@@H](CCCCCCCCCCC)OC(=O)CCCCC)[C@H]1NC(=O)C[C@@H](CCCCCCCCCCC)OC(=O)CCCCC)OC(=O)CCCCC` [Compound 5.23], for which the pyrogenicity entry in “USP rabbit pyrogen test” is “− (−<1° C.)”. Also, in series [1], the cytokine induction result is listed as “− (−, not observable at 10 μg/mL)”.

With `CCCCCCCCCCCCCCCC(=O)OC(CCCCCCCCCCC)CC(=O)NC1C(O)OC(COC2OC(CO)C(OP(=O)(O)O)C(OC(=O)CC(CCCCCCCCCCC)OC(=O)CCCCCCCCCCCCC)C2NC(=O)CC(CCCCCCCCCCC)OC(=O)CCCCCCCCCCCCC)C(O)C1O` (centres unmarked) [Compound 5.20], the pyrogenicity result in the series “USP rabbit pyrogen test” is given as “− (−<1° C.)”. In series [1], the cytokine induction result was “++ (++, observable @ 1 μg/mL)”.

With `CCCCCCCCCCCCCCCCCC(=O)OC(CCCCCCCCCCC)CC(=O)NC1C(OCC2OC(O)C(NC(=O)CC(CCCCCCCCCCC)OC(=O)CCCCCCCCCCCCCCC)C(O)C2O)OC(CO)C(OP(=O)(O)O)C1OC(=O)CC(CCCCCCCCCCC)OC(=O)CCCCCCCCCCCCC` (centres unmarked) [RC-552], the “delayed cardioprotective effect after NOS inhibitor (aminoguanidine or L-NAME)” value with cardiac ischemia [2] is reported as “blocked”. Also, the delayed protection result was “reduced infarct size and stunning” with cardiac ischemia [2] (treated about 24 h before cardiac ischemia); “reduced infarct size and stunning” with cardiac ischemia [3]. In addition, in the series on ischemic tissues, the “duration of extended acute protective effect” value was “at least 3 h”. The pyrogenicity result in the series “USP rabbit pyrogen test” is given as “− (−<1° C.)”. Also, the average temperature increase result in “USP rabbit pyrogen test” (rabbits, i.v. doses up to at least 1,000 μg/kg, 10% ethanol in USP WFI) is “less than 0.35 °C”. Further, the “intravenous dose without detectable increase in temperature” value in the series “body temperature in dogs” and in “body temperature in rats” was more than 3 mg/kg each time. The mean infarct size in series [4] (pigs, 29 μg/kg i.v. bolus 10 minutes prior to ischemia (LAD occlusion), vehicle 28.9±5.0%) is listed as 14.2±3.0%. Besides, the “mean infarct size, L-NAME before RC-552” value in [4] (pigs, 0.5 mg/kg L-NAME 30 minutes prior to 29 μg/kg RC-552) was 40.2±4.4%. The “reduction of infarct size vs vehicle pretreated pigs” value in series [4] (treated 10 minutes prior to ischemia) came to 50%. Also, the “concentration inducing IL-1B secretion” value in [1] (THP-1 cells, 4 hr induction) was > 10,000 ng/mL. The “concentration inducing IL-8 elaboration” value in series [1] (THP-1 cells, 4 hr induction) is > 10,000 ng/mL. The “concentration eliciting IL-1” value in series [1] (setting [6]) was > 10,000 μg/mL. In [1] (setting [6]), the “concentration eliciting IL-8” value is > 10,000 μg/mL. Also, the “concentration inducing TNF secretion” value in series [1] (THP-1 cells, not induced up to this concentration) is given as > 10,000 μg/mL. In addition, the cytokine induction entry in [1] was “− (−, not observable at 10 μg/mL)”. Also, the “maximal iNOS activity / nitrite elaboration” value in [5] (J774, IFN-γ primed) is recorded as “very low maximal iNOS activity”.

As to `CCCCCCCCCCCC(CC(=O)N[C@H]1[C@H](OC[C@H](NC(=O)CC(CCCCCCCCCCC)OC(=O)CCCCCCCCC)C(=O)O)O[C@H](CO)[C@@H](OP(=O)(O)O)[C@@H]1OC(=O)CC(CCCCCCCCCCC)OC(=O)CCCCC)OC(=O)CCCCC` (some centres unmarked) [Compound 5.67], the pyrogenicity result in the series “USP rabbit pyrogen test” (second table) is “++ (++>2° C.)”. In addition, in series [1], the cytokine stimulation result is recorded as “− (−, not observable at 10 μg/mL)”. Also, in series [5], the iNOS result is listed as “− (−>200)”.

`COC(=O)[C@@H](N)CCCNC(=N)N[N+](=O)[O-]` [L-NAME, Nω-nitro-L-arginine methyl ester, reference compound]: the “mean infarct size, L-NAME controls” value in [4] (pigs, combined group of L-NAME alone and L-NAME+vehicle, 0.5 mg/kg) came out at 36.9±3.7%.

Take `CCCCCCCCCCCC(CC(=O)N[C@H]1[C@H](OC[C@H](NC(=O)CC(CCCCCCCCCCC)OC(=O)CCCCC)C(=O)O)O[C@H](CO)[C@@H](OP(=O)(O)O)[C@@H]1OC(=O)CC(CCCCCCCCCCC)OC(=O)CCCCC)OC(=O)CCCCCCCCC` (some centres unmarked) [Compound 5.68]: the pyrogenicity result in the series “USP rabbit pyrogen test” (second table) is listed as “++ (++>2° C.)”. Further, in [1], the cytokine stimulation entry is reported as “− (−, not observable at 10 μg/mL)”. Further, in series [5], the iNOS entry is on record as “− (−>200)”.

On to `CCCCCCCCCCCCCC(=O)O[C@H](CCCCCCCCCCC)CC(=O)NCCCO[C@@H]1O[C@H](CO)[C@@H](OP(=O)(O)O)[C@H](OC(=O)C[C@@H](CCCCCCCCCCC)OC(=O)CCCCCCCCCCCCC)[C@H]1NC(=O)C[C@@H](CCCCCCCCCCC)OC(=O)CCCCCCCCCCCCC` [Compound 5.25], for which the pyrogenicity entry in the series “USP rabbit pyrogen test” is “− (−<1° C.)”. Moreover, the cytokine induction result in [1] is reported as “++ (++, observable @ 1 μg/mL)”.

Turning to `CCCCCCCCCCCC(CC(=O)N[C@H]1[C@H](OC[C@H](NC(=O)CC(CCCCCCCCCCC)OC(=O)CCCCCC)C(=O)O)O[C@H](CO)[C@@H](OP(=O)(O)O)[C@@H]1OC(=O)CC(CCCCCCCCCCC)OC(=O)CCCCCC)OC(=O)CCCCCC` (some centres unmarked) [Compound 5.54], the pyrogenicity result in “USP rabbit pyrogen test” (second table) is “++ (++>2° C.)”. Also, the cytokine stimulation entry in [1] was “− (−, not observable at 10 μg/mL)”. Besides, the iNOS result in [5] was “− (−>200)”.

Turning to `CCCCCCCCCCCC(CC(=O)N[C@H]1[C@H](OC[C@H](NC(=O)CC(CCCCCCCCCCC)OC(=O)CCCCCCCCC)C(=O)O)O[C@H](CO)[C@@H](OP(=O)(O)O)[C@@H]1OC(=O)CC(CCCCCCCCCCC)OC(=O)CCCCC)OC(=O)CCCCCCCCC` (some centres unmarked) [Compound 5.66], the pyrogenicity entry in “USP rabbit pyrogen test” (second table) is “++ (++>2° C.)”. The cytokine stimulation entry in series [1] is given as “− (−, not observable at 10 μg/mL)”. Besides, the iNOS result in series [5] is listed as “++ (++<80)”.

In the case of `CCCCCCCCCCCC(CC(=O)N[C@H]1[C@H](OC[C@H](NC(=O)CC(CCCCCCCCCCC)OC(=O)CCCCC)C(=O)O)O[C@H](CO)[C@@H](OP(=O)(O)O)[C@@H]1OC(=O)CC(CCCCCCCCCCC)OC(=O)CCCCC)OC(=O)CCCCC` (some centres unmarked) [Compound 5.26], the pyrogenicity entry in the series “USP rabbit pyrogen test” (second table) is “++ (++>2° C.)”. Also, in series [1], the cytokine stimulation result is “− (−, not observable at 10 μg/mL)”. The iNOS result in series [5] was “− (−>200)”.

Regarding `CCCCCCCCCCCC(CC(=O)NC1C(O)OC(COC2OC(CO)C(OP(=O)(O)O)C(OC(=O)CC(CCCCCCCCCCC)OC(C)=O)C2NC(=O)CC(CCCCCCCCCCC)OC(C)=O)C(O)C1O)OC(C)=O` (centres unmarked) [Compound 5.18], the pyrogenicity result in the series “USP rabbit pyrogen test” is “+ (+, from 1-2° C.)”. Besides, in series [1], the cytokine induction entry was “− (−, not observable at 10 μg/mL)”.

As to `CCCCCCCCCCC[C@H](CC(=O)N[C@H]1[C@H](OC[C@H](NC(=O)C[C@@H](CCCCCCCCCCC)OC(=O)CCCCC)C(N)=O)O[C@H](CO)[C@@H](OP(=O)(O)O)[C@@H]1OC(=O)C[C@@H](CCCCCCCCCCC)OC(=O)CCCCC)OC(=O)CCCCC` [Compound 5.21], the pyrogenicity entry in “USP rabbit pyrogen test” is listed as “− (−<1° C.)”. Further, the cytokine induction result in [1] is “− (−, not observable at 10 μg/mL)”.

`CCCCCCCCCCCCCC(=O)O[C@H](CCCCCCCCCCC)CC(=O)NCCO[C@@H]1O[C@H](CO)[C@@H](OP(=O)(O)O)[C@H](OC(=O)C[C@@H](CCCCCCCCCCC)OC(=O)CCCCCCCCCCCCC)[C@H]1NC(=O)C[C@@H](CCCCCCCCCCC)OC(=O)CCCCCCCCCCCCC` [Compound 5.29]: in “USP rabbit pyrogen test”, the pyrogenicity entry was “− (−<1° C.)”. For the same compound, the cytokine induction result in series [1] was “++ (++, observable @ 1 μg/mL)”.

On to `CCCCCCCCCCCC(CC(=O)NC1C(O)OC(COC2OC(CO)C(OP(=O)(O)O)C(OC(=O)CC(CCCCCCCCCCC)OC(=O)CCCCC)C2NC(=O)CC(CCCCCCCCCCC)OC(=O)CCCCC)C(O)C1O)OC(=O)CCCCC` (centres unmarked) [Compound 5.31], for which the pyrogenicity entry in the series “USP rabbit pyrogen test” is “− (−<1° C.)”. In addition, the cytokine induction result in series [1] is listed as “− (−, not observable at 10 μg/mL)”.

Take `CCCCCCCCCCCC(CC(=O)NC1C(O)OC(COC2OC(CO)C(OP(=O)(O)O)C(OC(=O)CC(CCCCCCCCCCC)OC(=O)CCC)C2NC(=O)CC(CCCCCCCCCCC)OC(=O)CCC)C(O)C1O)OC(=O)CCC` (centres unmarked) [Compound 5.32]: the pyrogenicity result in the series “USP rabbit pyrogen test” is given as “++ (++>2° C.)”. Also, the cytokine induction entry in [1] is on record as “− (−, not observable at 10 μg/mL)”.
